Like-named read-outs stand apart in the source and are kept apart here.
Experiments:
dCK-C3S-S74E [1] = molecular target: T1, dCK-C3S-S74E (Homo sapiens, UniProt P27707, form not given/S74E); assay: Enzymatic assay (PK/LDH coupled), dC phosphorylation by dCK in the presence of ATP; format: biochemical
Method: (§1) For enzymatic assays, cells were re-suspended in 20 mM TRIS, pH 8 500 mM NaCl, 0.1% BRIJ-35 and 5% glycerol buffer and one EDTA free anti-protease tablet was added (Roche). After sonication and centrifugation (30,000 × g), the supernatant was loaded on a 5 ml HisTrap FF column (GE healthcare) pre-equilibrated with 20 mM TRIS, pH 8, 500 mM NaCl, 0.01% BRIJ-35 and 5% glycerol buffer. The protein was then eluted by the same buffer containing 250 mM imidazole after a wash containing 25 mM imidazole. The eluted fraction was applied on a HiPrep 26/10 desalting column (GE healthcare) pre-equilibrated with 20 mM TRIS, pH 8, 500 mM NaCl, 5% glycerol and 0.01% BRIJ-35 buffer. Finally, protein in a 20% glycerol buffer was flash frozen in liquid nitrogen and stored at −80 °C.
(§2) Kinetic analyses were performed using a spectrophotometric continuous enzymatic-coupled assay using pyruvate kinase (PK) and lactate dehydrogenase (LDH). Analysis of the effect of compounds on dCK-C3S-S74E activity was performed using dC as substrate and UTP/ATP as phosphate donors. UTP is the physiological dCK-phosphate donor[46] and it was used to determine activation versus inhibition behavior. ATP was used to calculate IC50 values, as it allows the analysis of a dose response curve. The PK/LDH coupled assay is based on the conversion of phosphoenolpyruvate (PEP) and UDP/ADP to pyruvate and UTP/ATP by PK and the subsequent conversion of pyruvate to lactate by LDH. The latter step requires NADH, which is oxidized to NAD^+. NADH is fluorescent (excitation at 337 nm and emission at 460 nm), but not NAD^+. Thus, the measurement of fluorescent decrease at 460 nm is a measure of kinase activity. dCK experiments were performed in a buffer containing 50 mM HEPES, pH 7.5, 5 mM MgCl2, 1 mM DTT, and 100 mM KCl. Buffer was supplemented with PK (0.01 U/µl), LDH (0.02 U/µl), PEP (1 mM), NADH (300 µM) and compounds at varying concentrations. For UTP assays, protein concentration was 2 μM, substrate 200 µM (dC), and UTP 1 mM. For ATP assays, protein concentration was 100 nM (and 50 nM when indicated), substrate 100 µM (dC), and ATP 1 mM. All measurements were performed on a microplate reader Pherastar FS (BMG Labtech). All assays were performed in triplicate and each experiment was performed at least twice. The data are presented as mean ± SD. The results were plotted as kinetics and the velocity was determined for each condition as the slope of the linear range of the curve. For each compound concentration, the velocity of the reaction (according to V = d[P]/dt) was normalized with respect to the drug free control and velocity ratios were compared. IC50 values corresponding to enzymatic inhibition in ATP were calculated by nonlinear regression curves using GraphPad Prism software 9.4.0.

CCRF-CEM cell line [2] = assay: dCK cellular assay: CCRF-CEM proliferation in the presence of dT and dC; format: cell-based, human; conditions: for IC50: Homo sapiens
Method: (§3) The dCK cellular assay was set up to assess the ability to inhibit dCK activity in a cellular model. The model was developed with a T-cell acute lymphoblastic leukemia cell line (CCRF-CEM), because of its high dependence on the SP, thus on dCK activity. Cellular assays were performed to assess the inhibition of cell proliferation under two conditions: (i) in the presence of the compound alone to determine the nonspecific effect on cells, independent of dCK (nonspecific toxicity) and (ii) in the presence of an inhibitor of the DNP to determine the ability of compounds to inhibit dCK and decrease tumor proliferation (activity on dCK). The inhibitor of the DNP chosen for the experiments was thymidine (dT), a physiological inhibitor of ribonucleotide reductase which arrests cell proliferation in phase S. The dTTP produced via thymidine kinase from dT acts as a RNR inhibitor by an allosteric regulation of the R1 subunit. The addition of the nucleoside deoxycytidine (dC) in the medium allows the rescue of cell proliferation by passing only through the salvage pathway, mediated by dCK. dC needs to be added exogenously to mimic physiological concentrations because it is not present in the cell culture medium, on the contrary to mouse model, in which it is naturally present in the serum. Therefore, cell proliferation under these conditions (+dT +dC) is dCK dependent and it is possible to determine the IC50 of dCK inhibitors on the inhibition of cell proliferation. Results are expressed as % cell proliferation relative to the control with DMSO.
(§4) The amount of reduced dye formed by metabolically active cells was quantified by its fluorescence measured at 560 nm (excitation) and 590 nm (emission) in a microplate reader (CLARIOstar, BMG Labtech). A blank well without cells was used as a background control. Each experiment was performed at least three times (with technical triplicates) and data are presented as the mean ± SD.

dCK-C3S-S74E [3] = molecular target: T1, dCK-C3S-S74E; assay: Thermal shift assay (TSA)
Description: (§5) BL21 pRIL Escherichia coli cells were transformed with dCK-plasmids (dCK-C4S-S74E (for crystallization assays) and dCK-C3S-S74E (for TSA, enzymatic and ITC assays)). […] Protein dCK-C3S-S74E used for other assays contained only three mutated cysteines. The S74E mutation mimics the phosphorylated state of this serine, which favors the open conformation of the enzyme, making it competent for nucleoside binding[45] to evaluate the binding affinity with compounds.
(§6) For binding assays (TSA, ITC and crystallography) cells were re-suspended in 50 mM TRIS, pH 8, 500 mM NaCl, 30 mM imidazole and 10% glycerol buffer and one EDTA free anti-protease tablet was added (Roche). After sonication and centrifugation (30,000 × g), the supernatant was loaded on a 5 ml HisTrap FF column (GE healthcare) pre-equilibrated with resuspension buffer. Protein was then eluted by resuspension buffer containing 500 mM imidazole. Protein eluted fractions were mixed and concentrated. Protein was further purified by size exclusion chromatography (superdex 200 16/600, GE healthcare) in 20 mM HEPES, pH 7.5, and 200 mM NaCl before concentration to 30 mg/ml and storage at −80 °C.
(§7) Thermal shift assay (TSA) experiments were performed in 384-well PCR white plates in the assay buffer containing 20 mM HEPES, pH 7.5 and 200 mM NaCl. […] Plates were centrifuged at 200 × g for 2 min at 4 °C. […] Raw fluorescence data were treated, and the melting temperatures (Tm) were calculated using CFX Manager 3.1 software (Bio-Rad). ΔTm represents the difference in Tm between the protein in the presence of compound and the protein alone (both at 2% DMSO). Each experiment was performed at least twice (with technical triplicates) and data are presented as the mean ± SD.

dCK-C3S-S74E [4] = molecular target: T1, dCK-C3S-S74E; assay: Enzymatic assay (PK/LDH coupled), dC phosphorylation by dCK in the presence of UTP; format: biochemical; conditions: presence of UTP
Method: as §1
as §2, with “Analysis of the effect of compounds on dCK-C3S-S74E activity was performed using dC as substrate and UTP/ATP as phosphate donors.” left out

CCRF-CEM cell line [5] = assay: CCRF-CEM proliferation, compound alone (nonspecific toxicity); format: cell-based, human; conditions: compound 10 µM alone, 72 h
Method: as §3, §4

dCK-C3S-S74E [6] = assay: Enzymatic assay (PK/LDH coupled), dC phosphorylation by dCK in the presence of UTP; format: biochemical, human; conditions: presence of UTP
Method: as §1
as §2, with “Analysis of the effect of compounds on dCK-C3S-S74E activity was performed using dC as substrate and UTP/ATP as phosphate donors.” left out

dCK-C3S-S74E [7] = assay: Enzymatic assay (PK/LDH coupled), dC phosphorylation by dCK in the presence of ATP; format: biochemical, human; conditions: presence of ATP, read-out: ENZYMATIC ASSAY IC50
Method: as §1, §2

dCK-C3S-S74E [8] = assay: Thermal shift assay (TSA); conditions: for THERMAL SHIFT ASSAY +Tm (°): mean ± SD; for ΔTm (º) (TSA): Figure 2a, mean
Description: as §5, §6, §7

[9] = read-out: dCK CELLULAR ASSAY IC50 (nM), CCRF-CEM, 200 µM dT and 1 µM dC, read-out: dCK […] ASSAY IC50
[10] = Figure 2a, CCRF-CEM cell line, mean, read-out: IC50 (nM) (Cell Prolif)

T1 sequence (P27707 whole entry S74E, form open): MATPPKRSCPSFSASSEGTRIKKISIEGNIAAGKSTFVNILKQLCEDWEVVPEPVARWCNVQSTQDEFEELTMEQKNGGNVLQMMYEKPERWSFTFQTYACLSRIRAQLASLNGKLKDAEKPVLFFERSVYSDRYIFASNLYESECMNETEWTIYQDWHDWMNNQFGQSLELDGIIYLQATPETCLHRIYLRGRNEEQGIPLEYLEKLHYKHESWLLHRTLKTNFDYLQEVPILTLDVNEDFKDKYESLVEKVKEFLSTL
T1 sequence (P27707 whole entry S74E, form open): as above

SMILES	IC50 (CCRF-CEM cell line [2]; [9])	ENZYMATIC ASSAY (Activation/Inhibition) (dCK-C3S-S74E [6])	IC50 (dCK-C3S-S74E [7]; [dCK] = 100 nM)	THERMAL SHIFT ASSAY +Tm (°) (dCK-C3S-S74E [8])	other results
CCCN(c1nc(-c2cccnc2)cs1)c1cc(-c2ccc(S(=O)(=O)N3CCN(C)CC3)cc2)ccc1C [OR0659]					IC50 (dCK-C3S-S74E [1]; ATP, read-out: enzymatic inhibition IC50): > 100000 nM; inhibition of cell proliferation in combination with dT (CCRF-CEM cell line [2]; CCRF-CEM, presence of dT + dC): unable to inhibit cellular proliferation; ΔTm, dCK thermal stabilization (TSA) (dCK-C3S-S74E [3]; 5 μM protein, 50 μM compound): 6.3 °C
CCCN(c1nc(-c2nccc(N)n2)cs1)c1cc(-c2ccc(OCC(=O)N3CCN(C)CC3)cc2)ccc1C [OR0597]	220 ± 127 nM				ENZYMATIC ASSAY (Activation/Inhibition) (dCK-C3S-S74E [4]): I; IC50 (dCK-C3S-S74E [1]; read-out: ENZYMATIC ASSAY IC50, presence of ATP, [dCK] = 100 nM): 349 ± 89 nM
Cc1ccc(NC(=O)c2ccc(CN3CCN(C)CC3)cc2)cc1Nc1nc(-c2cccnc2)cs1 [Masitinib, masitinib, reference compound]					Cell proliferation of the CCRF-CEM cell line Mean (% prolif) (CCRF-CEM cell line [5]): 87.5%
CCCN(c1nc(-c2nccc(N)n2)cs1)c1cc(-c2ccc(CCCN3CCN(C)CC3)cc2)ccc1C [OR0598]	776 ± 206 nM	I	301 ± 78 nM	19.1 ± 0.2 °	
CCCN(c1nc(-c2nc(N)cc(N)n2)cs1)c1cc(-c2ccc(S(=O)(=O)N3CCN(CC(=O)[O-])CC3)cc2)ccc1C.[Na+] [OR0649]					IC50 (CCRF-CEM cell line [2]; CCRF-CEM, read-out: IC50 (nM) (Cell Prolif)): 13400 nM; ΔTm (º) (TSA) (dCK-C3S-S74E [3]; Figure 2a, mean): 17.61 º
Cc1ccc(C#Cc2ccc(CN3CCN(C)CC3)cc2)cc1Nc1nc(-c2nccc(N)n2)cs1 [OR0153]	2180 ± 388 nM	A/I	2040 ± 684 nM	16.9 ± 0.4 °	
Cc1ccc(-c2ccc(S(=O)(=O)N3CCN(C)CC3)cc2)cc1Nc1nc(-c2nc(N)cc(N)n2)cs1 [OR0614]		A/I		18.1 ± 0.8 °	IC50 (dCK-C3S-S74E [7]; [dCK] = 50 nM (footnote A)): 233 ± 83 nM; IC50 (CCRF-CEM cell line [2]; [10]): 10000 nM; ΔTm (º) (TSA) (dCK-C3S-S74E [8]): 18.1 º
Cc1ccc(NC(=O)c2ccc(CN(C)C)cc2)cc1Nc1nc(-c2nccc(N)n2)cs1 [OR0155]	13800 ± 394 nM	A/I	7780 ± 2330 nM	10.9 ± 0.4 °	
CCCN(c1nc(-c2nccc(N)n2)cs1)c1cc(-c2ccc(CCN3CCN(C)CC3)nc2)ccc1C [OR0599]	136 ± 53 nM	I	211 ± 52 nM	17.1 ± 0.2 °	
Cc1ccc(-c2ccc(OCCN3CCN(C)CC3)nc2)cc1N(CC(C)C)c1nc(-c2nc(N)cc(N)n2)cs1 [OR0608]		I		21.0 ± 0.5 °	IC50 (dCK-C3S-S74E [7]; [dCK] = 50 nM (footnote A)): 106 ± 23 nM; IC50 (CCRF-CEM cell line [2]; [10]): 40 nM; ΔTm (º) (TSA) (dCK-C3S-S74E [8]): 21.03 º
